Literature values, collected in paper PMC9851200, “Multiparameter phenotypic screening for endogenous TFEB and TFE3 translocation identifies novel chemical series modulating lysosome function” (Autophagy, 2022).

Columns and labels:
Set-up in all cases: method as in original PKIS2 published data
[1] = target: kinases (KINOMEscan panel) (Homo sapiens, UniProt P29317); settings: EPHA2; Published KINOMEscan; ref original PKIS2 published data; cited from earlier work
[2] = target: kinases (KINOMEscan panel) (Homo sapiens, UniProt Q9H2X6); settings: Published KINOMEscan; ref original PKIS2 published data; cited from earlier work
Chain of kinases (KINOMEscan panel) (Homo sapiens, UniProt Q9H2X6) (Q9H2X6 whole entry): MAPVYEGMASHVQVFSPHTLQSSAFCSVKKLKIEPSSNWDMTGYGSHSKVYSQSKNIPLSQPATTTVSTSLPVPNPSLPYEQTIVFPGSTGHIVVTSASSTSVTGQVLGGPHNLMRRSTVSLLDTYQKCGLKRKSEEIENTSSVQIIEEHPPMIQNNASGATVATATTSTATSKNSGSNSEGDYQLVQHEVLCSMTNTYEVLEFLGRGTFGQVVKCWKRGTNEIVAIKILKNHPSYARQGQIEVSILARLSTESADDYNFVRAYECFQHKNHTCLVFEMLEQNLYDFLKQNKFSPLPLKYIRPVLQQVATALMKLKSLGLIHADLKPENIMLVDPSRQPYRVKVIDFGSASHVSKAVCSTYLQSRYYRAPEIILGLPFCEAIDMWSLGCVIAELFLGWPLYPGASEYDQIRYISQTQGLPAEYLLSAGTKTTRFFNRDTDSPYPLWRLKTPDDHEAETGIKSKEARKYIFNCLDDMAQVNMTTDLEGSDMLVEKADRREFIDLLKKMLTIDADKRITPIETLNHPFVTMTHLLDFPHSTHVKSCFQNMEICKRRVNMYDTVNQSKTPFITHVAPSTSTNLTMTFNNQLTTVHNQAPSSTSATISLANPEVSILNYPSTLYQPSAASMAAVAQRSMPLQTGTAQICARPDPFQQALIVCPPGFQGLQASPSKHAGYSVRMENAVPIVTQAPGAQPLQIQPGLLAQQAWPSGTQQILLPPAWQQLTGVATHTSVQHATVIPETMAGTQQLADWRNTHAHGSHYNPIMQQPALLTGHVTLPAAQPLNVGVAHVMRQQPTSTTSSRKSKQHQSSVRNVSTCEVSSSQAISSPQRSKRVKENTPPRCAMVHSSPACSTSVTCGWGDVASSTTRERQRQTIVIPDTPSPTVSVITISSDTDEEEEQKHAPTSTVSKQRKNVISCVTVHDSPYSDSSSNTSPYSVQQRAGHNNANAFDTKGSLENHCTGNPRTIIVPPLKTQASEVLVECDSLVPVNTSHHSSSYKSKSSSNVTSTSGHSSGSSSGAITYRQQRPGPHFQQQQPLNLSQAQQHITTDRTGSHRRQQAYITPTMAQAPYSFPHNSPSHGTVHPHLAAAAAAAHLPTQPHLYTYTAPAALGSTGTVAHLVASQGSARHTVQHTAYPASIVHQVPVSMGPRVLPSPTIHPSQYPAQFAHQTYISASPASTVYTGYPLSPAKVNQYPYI

[3] = target: kinases (KINOMEscan panel) (Homo sapiens, UniProt P68400); settings: CSNK2A1; Published KINOMEscan; ref original PKIS2 published data; cited from earlier work
Chain of kinases (KINOMEscan panel) (Homo sapiens, UniProt P68400) (P68400 whole entry): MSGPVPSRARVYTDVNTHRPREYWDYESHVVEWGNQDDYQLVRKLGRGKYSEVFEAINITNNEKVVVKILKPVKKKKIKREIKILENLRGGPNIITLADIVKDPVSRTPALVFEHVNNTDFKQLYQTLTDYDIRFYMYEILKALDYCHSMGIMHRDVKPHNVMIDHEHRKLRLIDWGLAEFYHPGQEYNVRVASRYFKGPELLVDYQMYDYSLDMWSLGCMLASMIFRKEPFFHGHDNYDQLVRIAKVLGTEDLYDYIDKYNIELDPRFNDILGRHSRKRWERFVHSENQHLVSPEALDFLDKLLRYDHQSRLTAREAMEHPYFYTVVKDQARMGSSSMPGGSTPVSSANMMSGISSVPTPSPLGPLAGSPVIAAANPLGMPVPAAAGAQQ

[4] = target: T1, kinases (KINOMEscan panel) (Homo sapiens, UniProt P43403); settings: Published KINOMEscan; ref original PKIS2 published data; cited from earlier work
T1 sequence (P43403 1-619): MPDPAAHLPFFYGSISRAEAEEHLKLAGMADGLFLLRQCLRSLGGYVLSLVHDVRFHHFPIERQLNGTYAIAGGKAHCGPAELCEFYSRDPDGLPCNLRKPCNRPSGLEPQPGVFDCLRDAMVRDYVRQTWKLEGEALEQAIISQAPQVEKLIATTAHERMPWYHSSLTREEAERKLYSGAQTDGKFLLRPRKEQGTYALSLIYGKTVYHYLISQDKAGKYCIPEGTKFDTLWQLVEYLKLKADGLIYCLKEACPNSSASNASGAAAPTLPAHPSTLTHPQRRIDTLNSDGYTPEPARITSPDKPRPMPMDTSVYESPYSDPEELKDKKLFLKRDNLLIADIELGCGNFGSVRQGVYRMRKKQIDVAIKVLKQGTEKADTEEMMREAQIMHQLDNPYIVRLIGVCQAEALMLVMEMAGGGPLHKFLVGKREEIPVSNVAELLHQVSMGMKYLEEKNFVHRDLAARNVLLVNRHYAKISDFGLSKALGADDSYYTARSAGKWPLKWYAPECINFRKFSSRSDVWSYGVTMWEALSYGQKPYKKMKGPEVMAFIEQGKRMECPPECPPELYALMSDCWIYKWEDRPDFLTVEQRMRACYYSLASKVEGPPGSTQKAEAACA

[5] = target: T2, kinases (KINOMEscan panel) (Homo sapiens, UniProt Q8IYT8); settings: Published KINOMEscan; ref original PKIS2 published data; cited from earlier work
T2 sequence (Q8IYT8 1-1036): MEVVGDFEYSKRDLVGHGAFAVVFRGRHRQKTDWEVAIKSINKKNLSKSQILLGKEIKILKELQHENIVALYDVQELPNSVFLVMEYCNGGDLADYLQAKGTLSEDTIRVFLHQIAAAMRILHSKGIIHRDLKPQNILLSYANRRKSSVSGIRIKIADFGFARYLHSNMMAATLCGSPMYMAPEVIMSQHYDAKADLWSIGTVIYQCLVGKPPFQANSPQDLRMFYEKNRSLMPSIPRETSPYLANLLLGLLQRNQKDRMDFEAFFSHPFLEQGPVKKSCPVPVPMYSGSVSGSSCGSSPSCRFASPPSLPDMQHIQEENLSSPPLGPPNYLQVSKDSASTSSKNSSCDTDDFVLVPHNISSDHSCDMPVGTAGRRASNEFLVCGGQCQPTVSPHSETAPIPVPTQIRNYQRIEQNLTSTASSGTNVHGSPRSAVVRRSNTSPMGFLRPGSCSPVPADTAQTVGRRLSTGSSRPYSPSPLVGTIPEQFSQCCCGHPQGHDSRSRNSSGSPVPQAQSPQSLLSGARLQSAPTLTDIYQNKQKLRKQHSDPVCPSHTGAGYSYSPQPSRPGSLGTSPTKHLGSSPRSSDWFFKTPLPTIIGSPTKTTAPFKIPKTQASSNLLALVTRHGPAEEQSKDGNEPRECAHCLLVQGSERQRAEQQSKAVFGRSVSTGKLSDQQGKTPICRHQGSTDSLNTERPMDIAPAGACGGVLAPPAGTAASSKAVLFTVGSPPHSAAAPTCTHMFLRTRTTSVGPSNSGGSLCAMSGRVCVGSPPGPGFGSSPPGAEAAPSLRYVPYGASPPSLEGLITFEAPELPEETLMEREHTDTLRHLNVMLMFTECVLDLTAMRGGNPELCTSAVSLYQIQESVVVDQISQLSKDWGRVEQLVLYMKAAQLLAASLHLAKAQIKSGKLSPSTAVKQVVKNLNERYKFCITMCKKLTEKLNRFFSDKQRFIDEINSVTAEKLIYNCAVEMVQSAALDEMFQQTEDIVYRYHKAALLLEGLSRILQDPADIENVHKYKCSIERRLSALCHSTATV

[6] = target: T3, kinases (KINOMEscan panel) (Homo sapiens, UniProt Q8TDC3); settings: BRSK1; Published KINOMEscan; ref original PKIS2 published data; cited from earlier work
T3 sequence (Q8TDC3 1-778): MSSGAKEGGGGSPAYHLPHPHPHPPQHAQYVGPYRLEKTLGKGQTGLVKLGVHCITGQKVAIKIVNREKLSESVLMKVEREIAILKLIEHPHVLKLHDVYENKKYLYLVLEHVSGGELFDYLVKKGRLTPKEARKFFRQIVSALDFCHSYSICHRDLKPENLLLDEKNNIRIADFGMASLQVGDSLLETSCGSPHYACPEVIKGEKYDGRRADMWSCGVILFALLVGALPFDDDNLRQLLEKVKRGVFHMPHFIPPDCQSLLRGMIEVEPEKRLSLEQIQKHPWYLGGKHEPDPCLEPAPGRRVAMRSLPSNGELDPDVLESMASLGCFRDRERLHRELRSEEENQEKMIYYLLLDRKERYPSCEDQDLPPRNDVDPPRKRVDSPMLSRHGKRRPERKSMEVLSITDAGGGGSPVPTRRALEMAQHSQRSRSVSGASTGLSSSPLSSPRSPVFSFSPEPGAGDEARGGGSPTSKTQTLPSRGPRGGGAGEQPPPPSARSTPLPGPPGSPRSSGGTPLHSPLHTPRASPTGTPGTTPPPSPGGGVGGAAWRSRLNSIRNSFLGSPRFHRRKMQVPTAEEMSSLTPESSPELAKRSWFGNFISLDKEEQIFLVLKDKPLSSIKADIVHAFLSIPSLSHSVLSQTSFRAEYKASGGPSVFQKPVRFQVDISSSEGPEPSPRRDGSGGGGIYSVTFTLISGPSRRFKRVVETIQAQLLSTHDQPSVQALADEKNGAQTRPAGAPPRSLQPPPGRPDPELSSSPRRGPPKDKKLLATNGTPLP

Chain of kinases (KINOMEscan panel) (Homo sapiens, UniProt P29317) (P29317 24-976): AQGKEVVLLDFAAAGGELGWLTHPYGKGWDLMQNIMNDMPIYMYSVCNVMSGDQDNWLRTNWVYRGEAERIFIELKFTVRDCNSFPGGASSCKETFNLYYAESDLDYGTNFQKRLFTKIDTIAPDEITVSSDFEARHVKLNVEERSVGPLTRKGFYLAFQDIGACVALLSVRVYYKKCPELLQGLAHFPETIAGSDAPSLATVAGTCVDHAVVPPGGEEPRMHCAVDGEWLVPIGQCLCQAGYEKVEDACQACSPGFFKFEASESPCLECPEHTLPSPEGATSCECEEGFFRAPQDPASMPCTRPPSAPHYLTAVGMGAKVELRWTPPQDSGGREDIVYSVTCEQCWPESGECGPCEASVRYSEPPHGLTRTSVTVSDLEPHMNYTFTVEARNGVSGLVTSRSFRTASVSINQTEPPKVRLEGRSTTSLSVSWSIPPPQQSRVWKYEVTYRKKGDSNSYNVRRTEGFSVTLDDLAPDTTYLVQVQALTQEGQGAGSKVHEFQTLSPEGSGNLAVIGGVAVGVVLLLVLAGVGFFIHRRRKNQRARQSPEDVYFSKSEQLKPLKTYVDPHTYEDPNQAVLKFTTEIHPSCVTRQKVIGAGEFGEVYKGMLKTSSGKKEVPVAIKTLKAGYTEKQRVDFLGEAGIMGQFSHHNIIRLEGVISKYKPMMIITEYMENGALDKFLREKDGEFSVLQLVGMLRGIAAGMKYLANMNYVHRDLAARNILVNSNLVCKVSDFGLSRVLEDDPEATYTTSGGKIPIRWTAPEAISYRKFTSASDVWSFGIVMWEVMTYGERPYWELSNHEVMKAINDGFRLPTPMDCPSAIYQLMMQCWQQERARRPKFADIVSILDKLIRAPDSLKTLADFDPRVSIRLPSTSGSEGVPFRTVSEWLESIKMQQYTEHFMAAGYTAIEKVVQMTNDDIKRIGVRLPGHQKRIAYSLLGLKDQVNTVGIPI

Cc1cccc(-c2nc(Nc3ccncc3)c3ccccc3n2)n1 [NK215]
0: KINOMEscan HIPK2 [2] | KINOMEscan CSNK2A1 [3] | KINOMEscan ZAP70 [4] | KINOMEscan ULK2 [5] | KINOMEscan BRSK1 [6]
18: KINOMEscan EPHA2 [1]
